Structures can show the parent of a compound that is named as a salt.
Key:
[1] = pH-dependent solubility of vardenafil hydrochloride trihydrate; assay type: physicochemical
Description: This great pH-dependence represents a hindrance in particular to the development of pharmaceutical dosage forms with controlled release of active ingredient for oral use, because the medicinal form is exposed on passage through the gastrointestinal (GI) tract to media with pH values varying greatly from about pH 1 to pH 7.5. In order to achieve a sufficient bioavailability from a slow-release medicinal form, a substance must be absorbed if possible over the entire gastrointestinal tract. […] A slowing of the release of active ingredient usually leads in the case of substances subject to a very large first-pass effect to complete loss of the oral bioavailability, because the slow rise in level of the active ingredient means that the concentrations in the portal vein blood remain so low that the capacity of the metabolizing liver enzymes is sufficient for complete degradation.

[2] = cited from earlier work

Structure (SMILES)	solubility ([1]; aqueous buffer, in 0.15 M phosphate buffer of pH 4) [µg/mL]	solubility ([1]; aqueous buffer, in 0.15 M phosphate buffer of pH 7) [µg/mL]	solubility ([1]; simulated gastric fluid, in 0.1 N hydrochloric acid) [µg/mL]	absolute oral bioavailability [2] [%]
CCCc1nc(C)c2c(=O)[nH]c(-c3cc(S(=O)(=O)N4CCN(CC)CC4)ccc3OCC)nn12 [vardenafil hydrochloride trihydrate]	870	30	65000	
CCCc1nc(C)c2c(=O)[nH]c(-c3cc(S(=O)(=O)N4CCN(CC)CC4)ccc3OCC)nn12 [vardenafil, {2-ethoxy-5-[(4-ethyl-1-piperazinyl)sulphonyl]phenyl}-5-methyl-7-propylimidazo[5,1-f]triazin-4(3H)-one]				15
